For four molecules, TGI results are on record in PubChem BioAssay (NCI).

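Grown in 96-well plates, cells were treated for 48 hours with each compound at five concentrations. Insufficient inhibition: endpoint recorded as highest concentration tested. TGI: total growth inhibition.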 Where only a bound is given, the exact number is not on record here.

In the first experiment the test system is HL-60(TB) leukemia. Kind of experiment: inhibition of tumour cell growth, NCI panel, 48 h.
On to `CNC(=S)OCCC(C)CCCC(C)C` (stereo not drawn), for which the TGI stood at 23.6 µM.

For another experiment, the system named is HOP-18 NSCLC. Nature of the experiment: inhibition of tumour cell growth, NCI panel, 48 h.
`CNS(=O)(=O)NNS(=O)(=O)c1ccccc1`: the TGI is greater than 100 µM.
On the same count and under the same terms, the same measure for `OCC1=CC(NC2CC(CO)C(O)C(O)C2O)C(O)C(O)C1O` (stereo not drawn): greater than 100 µM; for `CNC(=S)OCCC(C)CCCC(C)C` (stereo not drawn): 31.3 µM.

A further experiment concerns HOP-62 NSCLC. Nature of the experiment: inhibition of tumour cell growth, NCI panel, 48 h.
In the case of `CNS(=O)(=O)NNS(=O)(=O)c1ccccc1`, the TGI was greater than 100 µM.
On the same count and under the same terms, the same measure for `OCC1=CC(NC2CC(CO)C(O)C(O)C2O)C(O)C(O)C1O` (stereo not drawn): greater than 100 µM.
On the same count and under the same terms, then `O=C1C=CC(=O)c2c1ccc1c3ccccc3n(CCCCCCCCCCCCn3c4ccccc4c4ccc5c(c43)C(=O)C=CC5=O)c21`, with greater than 100 µM.
Still for that read-out and setting: the same measure for `CNC(=S)OCCC(C)CCCC(C)C` (stereo not drawn): 34.1 µM.

The test system of a further experiment is HOP-92 NSCLC. Nature of the experiment: inhibition of tumour cell growth, NCI panel, 48 h.
The molecule `CNS(=O)(=O)NNS(=O)(=O)c1ccccc1` gave a TGI greater than 100 µM.
In the case of `O=C1C=CC(=O)c2c1ccc1c3ccccc3n(CCCCCCCCCCCCn3c4ccccc4c4ccc5c(c43)C(=O)C=CC5=O)c21`, the TGI is greater than 100 µM.

The next experiment relates to HS 578T breast. Kind of experiment: inhibition of tumour cell growth, NCI panel, 48 h.
Consider `O=C1C=CC(=O)c2c1ccc1c3ccccc3n(CCCCCCCCCCCCn3c4ccccc4c4ccc5c(c43)C(=O)C=CC5=O)c21`, for which the TGI is greater than 100 µM.

Another experiment relates to HT29 colon. Kind of experiment: inhibition of tumour cell growth, NCI panel, 48 h.
The molecule `CNS(=O)(=O)NNS(=O)(=O)c1ccccc1` came in with a TGI greater than 100 µM.
`OCC1=CC(NC2CC(CO)C(O)C(O)C2O)C(O)C(O)C1O` (stereo not drawn) returned a TGI greater than 100 µM.
Still for that read-out and setting: the same measure for `O=C1C=CC(=O)c2c1ccc1c3ccccc3n(CCCCCCCCCCCCn3c4ccccc4c4ccc5c(c43)C(=O)C=CC5=O)c21`: greater than 100 µM.
In turn, `CNC(=S)OCCC(C)CCCC(C)C` (stereo not drawn) showed a TGI of 31.3 µM.

The next experiment deals with IGROV1 ovarian. Kind of experiment: inhibition of tumour cell growth, NCI panel, 48 h.
The molecule `CNS(=O)(=O)NNS(=O)(=O)c1ccccc1` registered a TGI greater than 100 µM.
As to `OCC1=CC(NC2CC(CO)C(O)C(O)C2O)C(O)C(O)C1O` (stereo not drawn), the TGI is greater than 100 µM.
Consider `O=C1C=CC(=O)c2c1ccc1c3ccccc3n(CCCCCCCCCCCCn3c4ccccc4c4ccc5c(c43)C(=O)C=CC5=O)c21`, for which the TGI is greater than 100 µM.
`CNC(=S)OCCC(C)CCCC(C)C` (stereo not drawn): the TGI turned out to be 31.7 µM.

The next experiment concerns K-562 leukemia. Kind of experiment: inhibition of tumour cell growth, NCI panel, 48 h.
With `CNS(=O)(=O)NNS(=O)(=O)c1ccccc1`, the TGI was greater than 100 µM.
For the molecule `OCC1=CC(NC2CC(CO)C(O)C(O)C2O)C(O)C(O)C1O` (stereo not drawn), the TGI was greater than 100 µM.
Still for that read-out and setting: then `O=C1C=CC(=O)c2c1ccc1c3ccccc3n(CCCCCCCCCCCCn3c4ccccc4c4ccc5c(c43)C(=O)C=CC5=O)c21`, with greater than 100 µM; and `CNC(=S)OCCC(C)CCCC(C)C` (stereo not drawn), with 30.9 µM.

In another experiment the test system is KM12 colon. Nature of the experiment: inhibition of tumour cell growth, NCI panel, 48 h.
Turning to `CNS(=O)(=O)NNS(=O)(=O)c1ccccc1`, the TGI is greater than 100 µM.
On the same count and under the same terms, the same measure for `OCC1=CC(NC2CC(CO)C(O)C(O)C2O)C(O)C(O)C1O` (stereo not drawn): greater than 100 µM.
On the same count and under the same terms, then `O=C1C=CC(=O)c2c1ccc1c3ccccc3n(CCCCCCCCCCCCn3c4ccccc4c4ccc5c(c43)C(=O)C=CC5=O)c21`, with greater than 100 µM.
On the same count and under the same terms, then `CNC(=S)OCCC(C)CCCC(C)C` (stereo not drawn), with 27.8 µM.

The test system of a further experiment is KM20L2 colon. Nature of the experiment: inhibition of tumour cell growth, NCI panel, 48 h.
Take `CNS(=O)(=O)NNS(=O)(=O)c1ccccc1`: the TGI was greater than 100 µM.
The same measure, in the same setting: the same measure for `CNC(=S)OCCC(C)CCCC(C)C` (stereo not drawn): 30 µM.

In the next experiment the test system is LOX IMVI melanoma. Nature of the experiment: inhibition of tumour cell growth, NCI panel, 48 h.
Molecule `CNS(=O)(=O)NNS(=O)(=O)c1ccccc1` showed a TGI greater than 100 µM.
The same measure, in the same setting: then `OCC1=CC(NC2CC(CO)C(O)C(O)C2O)C(O)C(O)C1O` (stereo not drawn), with greater than 100 µM; and `O=C1C=CC(=O)c2c1ccc1c3ccccc3n(CCCCCCCCCCCCn3c4ccccc4c4ccc5c(c43)C(=O)C=CC5=O)c21`, with greater than 100 µM.
`CNC(=S)OCCC(C)CCCC(C)C` (stereo not drawn) showed a TGI of 26.2 µM.

The subject of a further experiment is LXFL 529 NSCLC. Nature of the experiment: inhibition of tumour cell growth, NCI panel, 48 h.
`CNS(=O)(=O)NNS(=O)(=O)c1ccccc1` came in with a TGI greater than 100 µM.
`CNC(=S)OCCC(C)CCCC(C)C` (stereo not drawn) had a TGI of 30.4 µM.

The subject of another experiment is M14 melanoma. Nature of the experiment: inhibition of tumour cell growth, NCI panel, 48 h.
As to `CNS(=O)(=O)NNS(=O)(=O)c1ccccc1`, the TGI was greater than 100 µM.
Regarding `OCC1=CC(NC2CC(CO)C(O)C(O)C2O)C(O)C(O)C1O` (stereo not drawn), the TGI is greater than 100 µM.
Same read-out and setting: the same measure for `O=C1C=CC(=O)c2c1ccc1c3ccccc3n(CCCCCCCCCCCCn3c4ccccc4c4ccc5c(c43)C(=O)C=CC5=O)c21`: greater than 100 µM.
The same measure, in the same setting: then `CNC(=S)OCCC(C)CCCC(C)C` (stereo not drawn), with 35.2 µM.

The subject of the next experiment is M19-MEL melanoma. Nature of the experiment: inhibition of tumour cell growth, NCI panel, 48 h.
The molecule `CNS(=O)(=O)NNS(=O)(=O)c1ccccc1` showed a TGI greater than 100 µM.
The same measure, in the same setting: then `OCC1=CC(NC2CC(CO)C(O)C(O)C2O)C(O)C(O)C1O` (stereo not drawn), with greater than 100 µM; and `CNC(=S)OCCC(C)CCCC(C)C` (stereo not drawn), with 34.9 µM.

The next experiment deals with MALME-3M melanoma. Nature of the experiment: inhibition of tumour cell growth, NCI panel, 48 h.
Take `CNS(=O)(=O)NNS(=O)(=O)c1ccccc1`: the TGI is greater than 100 µM.
On the same count and under the same terms, then `OCC1=CC(NC2CC(CO)C(O)C(O)C2O)C(O)C(O)C1O` (stereo not drawn), with greater than 100 µM; and `O=C1C=CC(=O)c2c1ccc1c3ccccc3n(CCCCCCCCCCCCn3c4ccccc4c4ccc5c(c43)C(=O)C=CC5=O)c21`, with greater than 100 µM; and `CNC(=S)OCCC(C)CCCC(C)C` (stereo not drawn), with 36.8 µM.

The test system of a further experiment is MCF7 breast. Kind of experiment: inhibition of tumour cell growth, NCI panel, 48 h.
In turn, `O=C1C=CC(=O)c2c1ccc1c3ccccc3n(CCCCCCCCCCCCn3c4ccccc4c4ccc5c(c43)C(=O)C=CC5=O)c21` displayed a TGI greater than 100 µM.

The next experiment deals with MDA-MB-231 breast. Nature of the experiment: inhibition of tumour cell growth, NCI panel, 48 h.
For `O=C1C=CC(=O)c2c1ccc1c3ccccc3n(CCCCCCCCCCCCn3c4ccccc4c4ccc5c(c43)C(=O)C=CC5=O)c21`, the TGI was greater than 100 µM.

A further experiment concerns MDA-MB-435. Kind of experiment: inhibition of tumour cell growth, NCI panel, 48 h.
`O=C1C=CC(=O)c2c1ccc1c3ccccc3n(CCCCCCCCCCCCn3c4ccccc4c4ccc5c(c43)C(=O)C=CC5=O)c21` had a TGI greater than 100 µM.

The next experiment has as its system MDA-N. Kind of experiment: inhibition of tumour cell growth, NCI panel, 48 h.
Consider `O=C1C=CC(=O)c2c1ccc1c3ccccc3n(CCCCCCCCCCCCn3c4ccccc4c4ccc5c(c43)C(=O)C=CC5=O)c21`, for which the TGI was greater than 100 µM.

The next experiment has as its system MOLT-4 leukemia. Nature of the experiment: inhibition of tumour cell growth, NCI panel, 48 h.
Consider `CNS(=O)(=O)NNS(=O)(=O)c1ccccc1`, for which the TGI is greater than 100 µM.
On the same count and under the same terms, the same measure for `OCC1=CC(NC2CC(CO)C(O)C(O)C2O)C(O)C(O)C1O` (stereo not drawn): greater than 100 µM.
Regarding `O=C1C=CC(=O)c2c1ccc1c3ccccc3n(CCCCCCCCCCCCn3c4ccccc4c4ccc5c(c43)C(=O)C=CC5=O)c21`, the TGI was greater than 90.5 µM.
